According to ChEMBL document CHEMBL2169878 (J Med Chem, 2012):

What was measured:
Plasmodium falciparum = test: Antiplasmodial activity against chloroquine-sensitive Plasmodium falciparum NF54 infected in human erythrocytes assessed as inhibition of [3H]hypoxanthine incorporation incubated for 48 hrs prior to [3H]hypoxanthine addition measured after 48 hrs by liquid scintillation counting; type: functional, organism-based
Heart [1] = test: Cardiotoxicity against Sprague-Dawley rat Langendorff perfused heart assessed as atrioventricular conduction time at 0.1 uM by electrophysiological analysis (reference value: 42.67 2.29 ms); type: toxicity, tissue-based
Heart [2] = test: Cardiotoxicity against Sprague-Dawley rat Langendorff perfused heart assessed as QT time interval at 30 uM by electrophysiological analysis (reference value: 73.01 4.52 ms); type: toxicity, tissue-based
Heart [3] = test: Cardiotoxicity against Sprague-Dawley rat Langendorff perfused heart assessed as heart rate at 0.1 uM by electrophysiological analysis (reference value: 236.68 7.83 bpm); type: toxicity, tissue-based
Salmonella typhimurium = test: Mutagenicity against Salmonella typhimurium TA98 assessed as revertants at 1.5 uM incubated for 90 mins followed by drug washout measured after 2 days relative to positive control; type: toxicity, organism-based; conditions: salmonella enterica subsp. enterica serovar typhimurium, 1.5 h
Heart [4] = test: Cardiotoxicity against Sprague-Dawley rat Langendorff perfused heart assessed as cycle length time at 1 uM by electrophysiological analysis (reference value: 258.62 8.87 ms); type: toxicity, tissue-based
Plasmodium berghei = test: Antimalarial activity against Plasmodium berghei ANKA expressing GFP infected in mouse assessed as mean survival days at 100 mg/kg, po administered 24 hrs post-infection (reference value: 6 to 7 days); type: functional
Heart [5] = test: Cardiotoxicity against Sprague-Dawley rat Langendorff perfused heart assessed as QTc time interval at 30 uM by electrophysiological analysis (reference value: 145.78 10.53 ms); type: toxicity, tissue-based

Clc1ccc(C(Nc2ccnc3cc(Cl)ccc23)c2ccc(CN3CCNCC3)cc2)cc1 (racemic)
IC50 (Plasmodium falciparum): 17 nM
Time (Heart [1]): 42.53 ms
Time (Heart [2]): 94.33 ms
Activity (Heart [3]): 235.08 bpm
Activity (Salmonella typhimurium): 2%
Time (Heart [4]): 260.13 ms
MSD (Plasmodium berghei): 28.8 days
Time (Heart [5]): 168.83 ms
